Measurements reported in US9714239B2, “N-phenyl-lactam derivatives capable of stimulating neurogenesis and their use in the treatment of neurological disorders” (Hoffmann-La Roche Inc., priority 2014, dated 2017).

Tested on: human embryonic stem cell derived neural stem cells (NSCs)
Assay: Neurogenesis assay: neural stem cell proliferation assay
Details: 96 h, compound concentration at which 150% activity of control (100%) is reached, increase in cells based on ATP levels (CellTiterGlo), 4 days incubation, dose response 8 μM to 8 nM
Description: Neural Stem Cell Proliferation Assay
Neurogenic properties of small molecules are determined based on the proliferation of human embryonic stem cell derived neural stem cells (NSCs) which were derived via a dual smad inhibition as previously described (Chambers, S. M., et al., Highly efficient neural conversion of human ES and iPS cells by dual inhibition of SMAD signaling, Nature biotechnology, 2009 27(3): p. 275-80.).
Compounds response is measured by the increase in cells based on ATP levels (Promega:CellTiterGlo®) after an incubation period of 4 days. NSCs are thawed and expanded over 3 passages. On the 14th day, NSCs are seeded in Polyornithin/Laminin coated 384 well plates at a cell density of 21,000 cells/cm^2 in a media volume of 38 μl.
4 hours after cell seeding, compound solutions are added at a volume of 2 μl. Stock solutions of the compounds (water, 5% DMSO) are diluted to obtain a dose response (11 points, dilution factor is 2), ranging from 8 μM to 8 nM. Controls are run to consistently determine the neurogenic properties of the cells:
Negative (neutral) control is cell culture Media (final DMSO concentration: 0.25%).
1. cell culture Media+100 ng/ml FGF2 (final DMSO concentration: 0.1%)
2. cell culture Media+20 ng/ml EGF (final DMSO concentration: 0.1%)
3. cell culture Media+100 ng/ml Wnt3a (final DMSO concentration: 0.1%)
After 4 days incubation at 37° C., 5% CO2, the amount of ATP per well is quantified. The ATP concentration is proportional to the cell number. ATP is quantified by using the Promega CellTiterGlo® kit. The CellTiterGlo® reagents contain a cell lysis buffer, a thermo stable luciferase (UltraGlo™ recombinant luciferase), magnesium and luciferin. Luciferin reacts with ATP producing oxyluciferin, AMP and light. The luminescence signal is proportional to the ATP content.
The value of negative (neutral) control is determined for each assay plate by taking the average of 16 negative control wells. The neurogenic compound response is calculated for each compound as (compound/Negative Control)*100. The values of EC150 from the dose response curve are determined for each test compound. The EC150 is the compound concentration at which 150% activity of control (100%) is reached.

Structure (SMILES) | EC (150% of control) [µM]
O=C1C(c2ccccc2)CCN1c1ccc(-c2cn[nH]c2)cc1 (stereo not shown) [Example 13, 3-Phenyl-1-[4-(1H-pyrazol-4-yl)phenyl]pyrrolidin-2-one] | 0.205
COc1cc(N2CCN(Cc3ccccc3)C2=O)ccc1-c1cn[nH]c1 [Example 9, 1-Benzyl-3-[3-methoxy-4-(1H-pyrazol-4-yl)phenyl]imidazolidin-2-one] | 0.161
COc1ccccc1CCN1CCN(c2ccc(-c3cn[nH]c3)c(OC)c2)C1=O [Example 44, 1-[2-(2-Methoxyphenyl)ethyl]-3-[3-methoxy-4-(1H-pyrazol-4-yl)phenyl]imidazolidin-2-one] | 1.98
COc1cccc(CN2CCCN(c3ccc(-c4cn[nH]c4)c(OC)c3)C2=O)c1 [Example 7, 1-[(3-Methoxyphenyl)methyl]-3-[3-methoxy-4-(1H-pyrazol-4-yl)phenyl]hexahydropyrimidin-2-one] | 0.114
COc1cc(N2CCN(Cc3ccccc3C(F)(F)F)C2=O)ccc1-c1ccncc1 [Example 54, 1-[3-Methoxy-4-(4-pyridyl)phenyl]-3-[[2-(trifluoromethyl)phenyl]methyl]imidazolidin-2-one] | 0.0351
COc1cc(N2CCN(Cc3ccc(F)cc3)C2=O)ccc1-c1cn[nH]c1 [Example 47, 1-[(4-Fluorophenyl)methyl]-3-[3-methoxy-4-(1H-pyrazol-4-yl)phenyl]imidazolidin-2-one] | 0.768
COc1cc(N2CCN(Cc3cccnc3)C2=O)ccc1-c1ccncc1 [Example 66, 1-[3-Methoxy-4-(4-pyridyl)phenyl]-3-(3-pyridylmethyl)imidazolidin-2-one] | 0.4
COc1cc(N2CCN(Cc3ccccn3)C2=O)ccc1-c1cn[nH]c1 [Example 63, 1-[3-Methoxy-4-(1H-pyrazol-4-yl)phenyl]-3-(2-pyridylmethyl)imidazolidin-2-one] | 0.255
COc1cc(N2CCC(c3ccccc3)C2=O)ccc1-c1cn[nH]c1 (stereo not shown) [Example 12, 1-[3-Methoxy-4-(1H-pyrazol-4-yl)phenyl]-3-phenyl-pyrrolidin-2-one] | 0.0414
COc1cc(N2CCCN(Cc3ccccc3)C2=O)ccc1-c1cn[nH]c1 [Example 5, 1-Benzyl-3-[3-methoxy-4-(1H-pyrazol-4-yl)phenyl]hexahydropyrimidin-2-one] | 1.33
COc1cccc(C2CCN(c3ccc(-c4ccncc4)cc3)C2=O)c1 (stereo not shown) [Example 71, 3-(3-Methoxyphenyl)-1-(4-pyridin-4-ylphenyl)pyrrolidin-2-one] | 0.0155
COc1cc(N2CCN(Cc3cccc(F)c3)C2=O)ccc1-c1cn[nH]c1 [Example 19, 1-[(3-Fluorophenyl)methyl]-3-[3-methoxy-4-(1H-pyrazol-4-yl)phenyl]imidazolidin-2-one] | 0.047
COc1cccc(CN2CCN(c3ccc(-c4cn[nH]c4)c(OC)c3)C2=O)c1 [Example 11, 1-[(3-Methoxyphenyl)methyl]-3-[3-methoxy-4-(1H-pyrazol-4-yl)phenyl]imidazolidin-2-one] | 0.0239
COc1cccc(CN2CCN(c3ccc(-c4cn[nH]c4)cc3OC)C2=O)c1 [Example 39, 1-[(3-Methoxyphenyl)methyl]-3-[2-methoxy-4-(1H-pyrazol-4-yl)phenyl]imidazolidin-2-one] | 0.393
COc1cccc(CN2CCN(c3ccc(-c4cnco4)cc3)C2=O)c1 [Example 59, 1-[(3-Methoxyphenyl)methyl]-3-[4-(1,3-oxazol-5-yl)phenyl]imidazolidin-2-one] | 0.122
COc1cc(N2CCC(c3cccc(F)c3)C2=O)ccc1-c1cn[nH]c1 (stereo not shown) [Example 26, 3-(3-Fluorophenyl)-1-(3-methoxy-4-(1H-pyrazol-4-yl)phenyl)pyrrolidin-2-one] | 0.0776
COc1cc(N2CCN(Cc3ccncc3)C2=O)ccc1-c1ccncc1 [Example 55, 1-[3-Methoxy-4-(4-pyridyl)phenyl]-3-(4-pyridylmethyl)imidazolidin-2-one] | 0.377
O=C1C(c2ccccc2)CCN1c1ccc(-c2cnco2)cc1 (stereo not shown) [Example 53, 1-[4-(1,3-Oxazol-5-yl)phenyl]-3-phenylpyrrolidin-2-one] | 2.21
COc1cccc(C2CCN(c3ccc(-c4cn[nH]c4)cc3)C2=O)c1 (stereo not shown) [Example 14, 3-(3-Methoxyphenyl)-1-[4-(1H-pyrazol-4-yl)phenyl]pyrrolidin-2-one] | 0.0405

Structure (SMILES) | EC (150% of control) [µM]
COc1cc(N2CCN(CCc3ccccc3Cl)C2=O)ccc1-c1cn[nH]c1 [Example 45, 1-[2-(2-Chlorophenyl)ethyl]-3-[3-methoxy-4-(1H-pyrazol-4-yl)phenyl]imidazolidin-2-one] | 0.136
COc1ccccc1CN1CCN(c2ccc(-c3cn[nH]c3)c(OC)c2)C1=O [Example 42, 1-[(2-Methoxyphenyl)methyl]-3-[3-methoxy-4-(1H-pyrazol-4-yl)phenyl]imidazolidin-2-one] | 0.308
COc1cc(N2CCC(c3ccccc3F)C2=O)ccc1-c1cnco1 (stereo not shown) [Example 58, 3-(2-Fluorophenyl)-1-[3-methoxy-4-(1,3-oxazol-5-yl)phenyl]pyrrolidin-2-one] | 0.23
COc1cc(N2CCC(c3cccc(Cl)c3)C2=O)ccc1-c1cnco1 (stereo not shown) [Example 38, 3-(3-Chlorophenyl)-1-[3-methoxy-4-(1,3-oxazol-5-yl)phenyl]pyrrolidin-2-one] | 1.35
CCOc1cccc(CN2CCN(c3ccc(-c4cn[nH]c4)c(OC)c3)C2=O)c1 [Example 22, 1-[(3-Ethoxyphenyl)methyl]-3-[3-methoxy-4-(1H-pyrazol-4-yl)phenyl]imidazolidin-2-one] | 0.0739
COc1cc(N2CCC(c3ccccc3)C2=O)ccc1-c1cnco1 (stereo not shown) [Example 8, 1-(3-Methoxy-4-oxazol-5-yl-phenyl)-3-phenyl-pyrrolidin-2-one] | 0.471
O=C1C(c2ccc(Cl)cc2)CCN1c1ccc(-c2cn[nH]c2)cc1 (stereo not shown) [Example 15, 3-(4-Chlorophenyl)-1-[4-(1H-pyrazol-4-yl)phenyl]pyrrolidin-2-one] | 0.384
COc1cccc(C2CCN(c3ccc(-c4cnco4)cc3)C2=O)c1 (stereo not shown) [Example 52, 3-(3-Methoxyphenyl)-1-[4-(1,3-oxazol-5-yl)phenyl]pyrrolidin-2-one] | 0.517
COc1cc(N2CCN(Cc3ccccc3Cl)C2=O)ccc1-c1cnco1 [Example 69, 1-[(2-Chlorophenyl)methyl]-3-[3-methoxy-4-(1,3-oxazol-5-yl)phenyl]imidazolidin-2-one] | 2.24
COc1cc(N2CCN(Cc3ccncc3)C2=O)ccc1-c1cn[nH]c1 [Example 62, 1-[3-Methoxy-4-(1H-pyrazol-4-yl)phenyl]-3-(4-pyridylmethyl)imidazolidin-2-one] | 0.042
COc1cc(N2CCN(Cc3cccc(OC(F)(F)F)c3)C2=O)ccc1-c1cn[nH]c1 [Example 21, 1-[3-Methoxy-4-(1H-pyrazol-4-yl)phenyl]-3-[[3-(trifluoromethoxy)phenyl]methyl]imidazolidin-2-one] | 0.0092
O=C1N(Cc2cccc(F)c2)CCN1c1ccc(-c2cnco2)cc1 [Example 72, 1-[(3-Fluorophenyl)methyl]-3-[4-(1,3-oxazol-5-yl)phenyl]imidazolidin-2-one] | 1.07
COc1cc(N2CCCN(Cc3ccccc3Cl)C2=O)ccc1-c1cn[nH]c1 [Example 6, 1-[(2-Chlorophenyl)methyl]-3-[3-methoxy-4-(1H-pyrazol-4-yl)phenyl]hexahydropyrimidin-2-one] | 1.99
O=C1C(c2ccc(F)cc2)CCN1c1ccc(-c2cn[nH]c2)cc1 (stereo not shown) [Example 16, 3-(4-Fluorophenyl)-1-[4-(1H-pyrazol-4-yl)phenyl]pyrrolidin-2-one] | 0.0417
COc1ccccc1CN1CCN(c2ccc(-c3cnco3)c(OC)c2)C1=O [Example 67, 1-[3-Methoxy-4-(1,3-oxazol-5-yl)phenyl]-3-[(2-methoxyphenyl)methyl]imidazolidin-2-one] | 0.702
COc1cccc(CN2CCN(c3ccc(-c4cn[nH]c4)c(F)c3)C2=O)c1 [Example 31, 1-[3-Fluoro-4-(1H-pyrazol-4-yl)phenyl]-3-[(3-methoxyphenyl)methyl]imidazolidin-2-one] | 0.0157
COc1cc(N2CCN(CC(C)c3ccccc3)C2=O)ccc1-c1cn[nH]c1 (stereo not shown) [Example 64, 1-[3-Methoxy-4-(1H-pyrazol-4-yl)phenyl]-3-(2-phenylpropyl)imidazolidin-2-one] | 0.387
COc1cc(N2CCN(Cc3cccc(F)c3)C2=O)ccc1-c1cnco1 [Example 75, 1-[(3-Fluorophenyl)methyl]-3-[3-methoxy-4-(1,3-oxazol-5-yl)phenyl]imidazolidin-2-one] | 0.597
